This passage reports GI50 and TGI results from PubChem BioAssay (NCI).

Some test systems named below: HT29 colon; SF-268 CNS; SK-MEL-2 melanoma; MOLT-4 leukemia; BT-549 breast; SN12C renal; HOP-92 NSCLC; EKVX NSCLC.
What all share (assay): NCI tumour cell line growth inhibition, 48 h

Several values for one entry are separate records, joined by “and”; a condition that tells them apart may be missing. Equal values may be shown once.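 Values below derive from 48-hour exposures of cells grown in 96-well plates, with endpoints linearly interpolated between the two concentrations bracketing the appropriate inhibition level. GI50 is the concentration that inhibits growth by half. The concentration for full growth arrest is given as TGI.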

Regarding `C=C1CC[C@@H]2[C@](C)(COC(C)=O)[C@H](OC(C)=O)CC[C@@]2(C)[C@@H]1CC(Sc1ccccc1)C1=CCOC1=O` (some centres not stated), the GI50 with HT29 colon was 1.77 µM; in the assay with SF-268 CNS it was 1.71 µM; in the assay on SK-MEL-2 melanoma, 2.25 µM; in the assay on MOLT-4 leukemia, 1.48 µM; in the assay on BT-549 breast, 1.59 µM; in the assay on SN12C renal, 2.1 µM. In addition, the figures for the GI50 in the assay on HOP-92 NSCLC and in the assay with EKVX NSCLC were 2.71 µM and 2.43 µM, respectively. Also, the TGI in the assay with HT29 colon worked out at 3.77 µM; with SF-268 CNS, 3.55 µM; with SK-MEL-2 melanoma, 4.59 µM; with MOLT-4 leukemia, 6.15 µM; in the assay with BT-549 breast, 3.99 µM; in the assay on SN12C renal it was 7.07 µM. Also, the results for the TGI in the assay on HOP-92 NSCLC and in the assay on EKVX NSCLC were 8.71 µM and 10.4 µM, respectively.
Take `C=C1C(=O)OC2CCN3CC=C(COC(=O)C(C)(O)C4(CO4)C1C)C23` (configuration not stated): the TGI in the assay on HT29 colon, in the assay with SF-268 CNS, in the assay with SK-MEL-2 melanoma, in the assay with MOLT-4 leukemia, in the assay on BT-549 breast and in the assay with SN12C renal was above 100 µM throughout. Moreover, the TGI in the assay on HOP-92 NSCLC and with EKVX NSCLC was above 100 µM each time.
`COc1ccc(C(C)=O)cc1N1C(=O)C2C(C1=O)C1(c3ccccc3)C(=O)C2(c2ccccc2)C(c2ccc(C)cc2)=C1c1ccc(C)cc1` (configuration not stated): the GI50 with HT29 colon, with SF-268 CNS, in the assay on SK-MEL-2 melanoma, with MOLT-4 leukemia, in the assay with BT-549 breast and in the assay on SN12C renal was above 100 µM in each case. Besides, in the assay with HOP-92 NSCLC, the GI50 is 21.7 µM. Further, the TGI in the assay with HT29 colon, with SF-268 CNS, in the assay with SK-MEL-2 melanoma, in the assay on MOLT-4 leukemia, in the assay on BT-549 breast and in the assay with SN12C renal was above 100 µM each time. For the same molecule, in the assay with HOP-92 NSCLC, the TGI is above 100 µM.
Regarding `CC(C)c1ccc2c(c1)CC[C@@H]1[C@@](C)(C(=O)O)CCC[C@]21C`, the GI50 is 2.91 µM with SK-MEL-2 melanoma, 1.47 µM in the assay with BT-549 breast, 20.7 µM in the assay on HOP-92 NSCLC and 1.82 µM in the assay on EKVX NSCLC. Also, the TGI stood at 16.1 µM in the assay on SK-MEL-2 melanoma, 4.59 µM with BT-549 breast, 76.8 µM in the assay on HOP-92 NSCLC and 6.94 µM in the assay on EKVX NSCLC.
As for `NC(=O)NC1C(c2ccccc2)=C1c1ccccc1`, the TGI in the assay with HT29 colon was determined as 46.1 µM; in the assay on SF-268 CNS, 32 µM; in the assay on MOLT-4 leukemia, 17.7 µM; with BT-549 breast it was 26.7 µM; in the assay on SN12C renal it was 35.4 µM; with HOP-92 NSCLC, 38.1 µM. The TGI in the assay on EKVX NSCLC was 60 µM.
As for `COc1cc2nc(-c3ccc(Cl)cc3)cc(OCCCN3CCCCC3)c2cc1OC`, the GI50 was 3.2 µM in the assay on SF-268 CNS, 0.946 µM with SN12C renal, 1.02 µM in the assay with HOP-92 NSCLC and 1.47 µM with EKVX NSCLC. Moreover, the TGI was above 100 µM in the assay on SF-268 CNS, above 100 µM in the assay on SN12C renal, 6.24 µM in the assay on HOP-92 NSCLC and above 100 µM in the assay on EKVX NSCLC.
For the molecule `COc1cc(C#CC(=O)OC/C=C/c2ccc3c(c2)OCO3)cc(OC)c1OC`, the TGI is above 100 µM in the assay on HT29 colon; 59.5 µM in the assay on SF-268 CNS; 25.4 µM with SK-MEL-2 melanoma; 52.3 µM in the assay with BT-549 breast; above 100 µM in the assay with SN12C renal; 54.5 µM in the assay with HOP-92 NSCLC. This molecule displayed a TGI in the assay on EKVX NSCLC of 76.9 µM.
Turning to `Cc1ccc(C)c(C2=C(c3cn(C)c4ccccc34)C(=O)NC2=O)c1`, the GI50 with HT29 colon was above 16 µM; in the assay on SF-268 CNS, above 25 µM; in the assay with SK-MEL-2 melanoma it was above 25 µM; in the assay with MOLT-4 leukemia, 12.4 µM; with BT-549 breast, above 25 µM; in the assay with SN12C renal, above 25 µM. Further, the TGI in the assay with HT29 colon, in the assay on SF-268 CNS, in the assay on SK-MEL-2 melanoma, with MOLT-4 leukemia, in the assay on BT-549 breast and in the assay on SN12C renal was above 25 µM each time.
As for `C=C(CNCc1ccccc1)c1ccc(C(=O)Nc2ccccc2N)cc1`, the GI50 in the assay on SF-268 CNS was 7.43 µM; with SK-MEL-2 melanoma it was 5.49 µM; in the assay on BT-549 breast, 15.4 µM; in the assay with SN12C renal, 0.583 µM; in the assay on HOP-92 NSCLC, 15.1 µM; in the assay on EKVX NSCLC, 32.5 µM. Moreover, the TGI in the assay on SF-268 CNS was 45.6 µM; in the assay with SK-MEL-2 melanoma, above 100 µM; with BT-549 breast, above 100 µM; with SN12C renal, 14.8 µM; in the assay on HOP-92 NSCLC, 55.9 µM; with EKVX NSCLC it was above 100 µM.
Turning to `O=C1NC(=O)C(c2cnc3ccccn23)=C1c1cn2c3c(cc(F)cc13)CN(C(=O)N1CCCCC1)CC2`, the GI50 was 0.723 µM in the assay on HT29 colon; 13.4 µM in the assay on SF-268 CNS; 8.8 µM with SK-MEL-2 melanoma; 3.41 µM in the assay with MOLT-4 leukemia; 14.7 µM in the assay on BT-549 breast; 9.54 µM in the assay with SN12C renal. Besides, the GI50 in the assay with HOP-92 NSCLC was 14.8 µM. The TGI was 20 µM in the assay with HT29 colon; 39.4 µM with SF-268 CNS; 27.2 µM in the assay with SK-MEL-2 melanoma; above 81.4 µM in the assay with MOLT-4 leukemia; 45 µM with BT-549 breast; 54.6 µM in the assay with SN12C renal. The TGI in the assay on HOP-92 NSCLC amounted to 38.1 µM.
On to `Cn1c2ccccc2c2c3c(c4c5cc(Br)ccc5n(C)c4c21)C(=O)N(O)C3=O`, for which the results for the GI50 in the assay on SK-MEL-2 melanoma, in the assay on MOLT-4 leukemia and with HOP-92 NSCLC were above 48.2 µM, 0.0474 µM and 0.18 µM, respectively. Besides, the TGI was above 100 µM in the assay with SK-MEL-2 melanoma and 0.275 µM with MOLT-4 leukemia.
In the case of `CCOC(=O)CCCn1c(SC)nc2[nH]cc(-c3ccccc3)c2c1=O`, the GI50 was 19.5 µM in the assay on HT29 colon; 20.8 µM in the assay on SF-268 CNS; 21.6 µM in the assay with SK-MEL-2 melanoma; 0.489 µM in the assay on MOLT-4 leukemia; 17 µM with SN12C renal; 7.62 µM with HOP-92 NSCLC. Moreover, in the assay with EKVX NSCLC, the GI50 is 24.8 µM. Further, the TGI with HT29 colon was determined as 59.7 µM; in the assay with SF-268 CNS, 87.8 µM; in the assay with SK-MEL-2 melanoma, 45.8 µM; in the assay on MOLT-4 leukemia it was 10.1 µM; in the assay with SN12C renal, 49.9 µM; with HOP-92 NSCLC, 41.1 µM. In the assay with EKVX NSCLC, this molecule displayed a TGI of 85.8 µM.
Regarding `Cn1cc(CO)c2c1C(=O)C=C(N1CC1)C2=O`, the GI50 in the assay with HT29 colon is below 0.0189 µM; in the assay on SF-268 CNS it was below 0.0154 µM; in the assay with MOLT-4 leukemia, 2.64 µM; in the assay with BT-549 breast it was below 0.0128 µM; in the assay with SN12C renal, below 0.01 µM; in the assay with HOP-92 NSCLC, 0.898 µM. Also, the GI50 in the assay on EKVX NSCLC was 0.214 µM. In addition, the TGI was above 57.3 µM in the assay on HT29 colon; 2.35 µM with SF-268 CNS; above 100 µM with MOLT-4 leukemia; 0.133 µM with BT-549 breast; 0.027 µM with SN12C renal; 4 µM in the assay with HOP-92 NSCLC. Also, the TGI in the assay with EKVX NSCLC was 1.15 µM.
As to `OC[C@H]1C[C@](O)(c2ccc(Cl)cc2)[C@@H](c2ccc(Cl)cc2)O1`, the GI50 in the assay with HT29 colon is 23.7 µM; in the assay with SF-268 CNS, 26.8 µM; in the assay with MOLT-4 leukemia, 17.6 µM; in the assay on BT-549 breast, 16.8 µM; in the assay on SN12C renal it was 17 µM; in the assay with HOP-92 NSCLC it was 16.8 µM. Moreover, the GI50 in the assay with EKVX NSCLC is 18.2 µM. The TGI is 50.1 µM in the assay on HT29 colon; above 100 µM with SF-268 CNS; 60.1 µM in the assay on MOLT-4 leukemia; 34.6 µM in the assay on BT-549 breast; 35.8 µM in the assay on SN12C renal; 45.6 µM with HOP-92 NSCLC. The TGI with EKVX NSCLC was found to be 48.2 µM.
With `S=C1NC2(CCCCCC2)NN1c1ccccc1`, the TGI in the assay on HT29 colon, in the assay with SF-268 CNS, in the assay with MOLT-4 leukemia, in the assay on BT-549 breast, with SN12C renal and in the assay with HOP-92 NSCLC was above 100 µM each time. Besides, the TGI in the assay with EKVX NSCLC is above 100 µM.
As to `C=C1C(=O)O[C@@H]2C[C@@H]1CC/C(C)=C/CC/C(C)=C/CC[C@@]2(C)O`, the GI50 in the assay on HT29 colon is 31 µM; in the assay with SF-268 CNS it was 16.3 µM; in the assay with SK-MEL-2 melanoma, 2.69 µM; with MOLT-4 leukemia, 3.72 µM; in the assay with BT-549 breast, 21.1 µM; with HOP-92 NSCLC, 3.96 µM. The GI50 with EKVX NSCLC was 23.5 µM. Also, the TGI in the assay on HT29 colon was above 100 µM; in the assay with SF-268 CNS it was 35.6 µM; with SK-MEL-2 melanoma, 12.5 µM; with MOLT-4 leukemia, 18 µM; in the assay with BT-549 breast it was 40.4 µM; in the assay with HOP-92 NSCLC, 19.8 µM. Further, the TGI in the assay on EKVX NSCLC was 48.9 µM.
For `Cc1nc2c(-c3cnc(N)nc3)nc(N3CCOCC3)nc2n1C(C)C`, the TGI was above 100 µM in the assay with SF-268 CNS; 0.733 µM and 0.688 µM with SK-MEL-2 melanoma; above 59.3 µM in the assay with MOLT-4 leukemia; 2.22 µM in the assay on BT-549 breast; above 100 µM in the assay on SN12C renal; 1.81 µM in the assay on EKVX NSCLC. The GI50 with MOLT-4 leukemia was 0.297 µM and 0.197 µM.
In the case of `CN(C)N=Nc1ccc(NC=O)cc1`, the TGI in the assay with HT29 colon, with SK-MEL-2 melanoma, in the assay with MOLT-4 leukemia, with BT-549 breast, in the assay with SN12C renal and with HOP-92 NSCLC was above 100 µM each time. In the assay on EKVX NSCLC, the TGI is above 100 µM.
Take `Clc1nc2ccccc2nc1CI`: the GI50 in the assay on HT29 colon was 3.93 µM; in the assay with SF-268 CNS it was 5.23 µM; with SK-MEL-2 melanoma, 5.43 µM; in the assay on MOLT-4 leukemia, 1.75 µM; in the assay on BT-549 breast it was 6.13 µM; in the assay on SN12C renal, 4.15 µM. Further, the GI50 with HOP-92 NSCLC is 1.81 µM. In addition, the TGI in the assay on HT29 colon was 13.5 µM; in the assay on SF-268 CNS it was 17.9 µM; with SK-MEL-2 melanoma, 19.4 µM; in the assay with MOLT-4 leukemia, 12.2 µM; with BT-549 breast it was 18.2 µM; in the assay with SN12C renal, 15.6 µM. In the assay with HOP-92 NSCLC, this molecule gave a TGI of 6.82 µM.
